Earlier results on six compounds are cited in US6469171B1, “Syntheses of a variety of lamellarin compounds and analogues” (The Australian National University, priority 1998, dated 2002).

In one data set the test system is fertilised sea urchin. The settings on record: fertilised sea urchin assay.
A further data set concerns P388 cell line. The settings on record: P388 cell line in culture.
The next data set has as its system A549 cell line. The conditions noted are these: A549 cell line in culture.
The next data set concerns lung cancer cell lines. The settings on record: by acting as a Type IV microtubule poison.

Consider `COc1cc(-c2c3c4cc(OC)c(O)cc4oc(=O)c3n3ccc4cc(O)c(OC)cc4c23)ccc1O` [Lamellarin D], for which the “inhibition of cell division” value in the data set on fertilised sea urchin is on record as “inhibition of cell division”.

As for Lamellarin I, the cytotoxicity result in the data set on P388 cell line and in the data set on A549 cell line was “significant cytoxicity” throughout.

`COc1ccc(-c2c3n(c4c(=O)oc5cc(O)c(OC)cc5c24)CCc2cc(O)c(OC)cc2-3)cc1O` [Lamellarin L]: the cytotoxicity result in the data set on P388 cell line and with A549 cell line was “significant cytoxicity” each time.

`COc1cc(-c2c3n(c4c(=O)oc5cc(O)c(OC)cc5c24)CCc2c-3cc(OC)c(OC)c2OC)ccc1O` [Lamellarin C]: the “inhibition of cell division” value in the data set on fertilised sea urchin was “inhibition of cell division”.

Turning to `COc1ccc(-c2c3c4cc(OC)c(O)cc4oc(=O)c3n3ccc4cc(O)c(OC)cc4c23)cc1O` [Lamellarin N], in the data set on lung cancer cell lines, the “activity in lung cancer cell lines” value was “activity”.

Turning to Lamellarin K, the cytotoxicity entry with P388 cell line and with A549 cell line was “significant cytoxicity” each time.
